Measured values published in PubChem BioAssay AID216 (DTP/NCI, 2004).
Several values for one entry are separate records, joined by “and”; a condition that tells them apart may be missing. Equal entries are not always repeated. Toxic doses and inconclusive results are not listed.

System: BDF1 mice, P288 leukemia ip, survival T/C
Assay: NCI In Vivo Anticancer Drug Screen. Data for tumor model P288 Lymphocytic Leukemia (intraperitoneal) in B6D2F1 (BDF1) mice
Settings: endpoint: survival time, mean or median, higher = longer survival
Description: The antitumor activity of compounds was measured in mice bearing transplantable tumors. Survival or tumor size were measured and the results are expressed as the measurement made in the treated group (T) divided by the measurement made in the vehicle treated control group (C). The tumor model used in this assay is P288 Lymphocytic Leukemia (intraperitoneal) in B6D2F1 (BDF1) mice

[1] = dose: 1.0 mg/kg/injection, schedule: Q01DX Z (ip), vehicle: saline
[2] = dose: 2.0 mg/kg/injection, schedule: Q01DX Z (ip), vehicle: saline
[3] = dose: 25.0 mg/kg/injection, schedule: Q01DX010 (ip), vehicle: saline
[4] = dose: 32.0 mg/kg/injection, schedule: Q01DX Z (ip), vehicle: saline
[5] = dose: 62.5 mg/kg/injection, schedule: Q01DX010 (ip), vehicle: saline
[6] = dose: 125.0 mg/kg/injection, schedule: Q01DX Z (ip), vehicle: carboxymethylcellulose (CMC)
[7] = dose: 250.0 mg/kg/injection, schedule: Q01DX010 (ip), vehicle: saline
[8] = dose: 0.12 mg/kg/injection, schedule: Q01DX Z (ip), vehicle: saline
[9] = dose: 0.25 mg/kg/injection, schedule: Q01DX Z (ip), vehicle: saline
[10] = dose: 0.5 mg/kg/injection, schedule: Q01DX Z (ip), vehicle: saline
[11] = dose: 16.0 mg/kg/injection, schedule: Q01DX010 (ip), vehicle: saline
[12] = dose: 12.5 mg/kg/injection, schedule: Q01DX Z (ip), vehicle: carboxymethylcellulose (CMC)
[13] = dose: 4.0 mg/kg/injection, schedule: Q01DX Z (ip), vehicle: saline

For O=NN(CCCl)C(=O)NCCCl, the T/C [1] was 121 % of control, the T/C [2] was 117 % of control and the T/C (dose: 6.25 mg/kg/injection, schedule: Q01DX010 (ip), vehicle: saline) was 193 % of control and 428 % of control. The T/C (dose: 12.5 mg/kg/injection, schedule: Q01DX010 (ip), vehicle: saline) was 150 % of control and 192 % of control, the T/C (dose: 16.0 mg/kg/injection, schedule: Q01DX Z (ip), vehicle: saline) was 203 % of control and the T/C [3] was 106 % of control and 121 % of control. The T/C [4] was 263 % of control, the T/C (dose: 50.0 mg/kg/injection, schedule: Q01DX010 (ip), vehicle: saline) was 87 % of control and the T/C (dose: 64.0 mg/kg/injection, schedule: Q01DX Z (ip), vehicle: saline) was 101 % of control.
With [N-]=[N+]=CC(=O)NCC(=O)NN the T/C (dose: 125.0 mg/kg/injection, schedule: Q01DX Z (ip), vehicle: other) was 96 % of control, the T/C (dose: 250.0 mg/kg/injection, schedule: Q01DX Z (ip), vehicle: other) was 98 % of control and the T/C (dose: 500.0 mg/kg/injection, schedule: Q01DX Z (ip), vehicle: other) was 92 % of control.
In the case of O=CN(O)CC(=O)O, the T/C (dose: 31.25 mg/kg/injection, schedule: Q01DX Z (ip), vehicle: carboxymethylcellulose (CMC)) is reported as 110 % of control, the T/C [5] is reported as 100 % of control and the T/C (dose: 62.5 mg/kg/injection, schedule: Q01DX Z (ip), vehicle: carboxymethylcellulose (CMC)) is reported as 104 % of control. The T/C (dose: 125.0 mg/kg/injection, schedule: Q01DX010 (ip), vehicle: saline) was 100 % of control, the T/C [6] was 100 % of control and the T/C [7] was 100 % of control. For the same compound, the T/C (dose: 250.0 mg/kg/injection, schedule: Q01DX Z (ip), vehicle: carboxymethylcellulose (CMC)) was 110 % of control, the T/C (dose: 500.0 mg/kg/injection, schedule: Q01DX010 (ip), vehicle: saline) was 88 % of control and the T/C (dose: 500.0 mg/kg/injection, schedule: Q01DX Z (ip), vehicle: carboxymethylcellulose (CMC)) was 106 % of control and 115 % of control. The T/C (dose: 1000.0 mg/kg/injection, schedule: Q01DX Z (ip), vehicle: carboxymethylcellulose (CMC)) was 100 % of control.
In the case of CSCS(=O)C[C@H](CO)NC(=O)/C=C/c1c(C)[nH]c(=O)[nH]c1=O (stereo partly specified), the T/C (dose: 0.06 mg/kg/injection, schedule: Q01DX Z (ip), vehicle: saline) is reported as 102 % of control, the T/C [8] is reported as 96 % of control and the T/C [9] is reported as 107 % of control and 96 % of control. For the same compound, the T/C [10] was 90 % of control and 96 % of control and the T/C [1] was 97 % of control.
With CN(C)c1nc(N(C)C)nc(N(C)C)n1 the T/C (dose: 75.0 mg/kg/injection, schedule: Q01DX010 (ip), vehicle: saline) was 90 % of control and the T/C [6] was 97 % of control.
In the case of CN(C)c1ccc(/C=C\c2ccnc3ccccc23)cc1, the T/C (dose: 6.25 mg/kg/injection, schedule: Q01DX Z (ip), vehicle: water) is reported as 98 % of control, the T/C (dose: 12.0 mg/kg/injection, schedule: Q01DX010 (ip), vehicle: saline) is reported as 88 % of control and the T/C (dose: 12.5 mg/kg/injection, schedule: Q01DX Z (ip), vehicle: water) is reported as 98 % of control. For the same compound, the T/C (dose: 18.0 mg/kg/injection, schedule: Q01DX010 (ip), vehicle: saline) was 88 % of control, the T/C (dose: 25.0 mg/kg/injection, schedule: Q01DX Z (ip), vehicle: water) was 100 % of control and the T/C (dose: 27.0 mg/kg/injection, schedule: Q01DX010 (ip), vehicle: saline) was 94 % of control. The T/C (dose: 40.0 mg/kg/injection, schedule: Q01DX010 (ip), vehicle: saline) was 88 % of control, the T/C (dose: 50.0 mg/kg/injection, schedule: Q01DX Z (ip), vehicle: water) was 105 % of control and the T/C (dose: 100.0 mg/kg/injection, schedule: Q01DX Z (ip), vehicle: water) was 108 % of control. For the same compound, the T/C (dose: 200.0 mg/kg/injection, schedule: Q01DX Z (ip), vehicle: water) was 90 % of control.
With CC(=O)Nc1ccc(/C=N/Nc2ccc([N+](=O)[O-])cn2)cc1 the T/C (dose: 31.3 mg/kg/injection, schedule: Q01DX010 (ip), vehicle: saline) was 89 % of control, the T/C [5] was 89 % of control and the T/C [7] was 89 % of control.
In the case of O=C(Nc1ccc(C2=NCCN2)cc1)c1cccc(C(=O)Nc2ccc(C3=NCCN3)cc2)c1, the T/C (dose: 2.4 mg/kg/injection, schedule: Q01DX Z (ip), vehicle: carboxymethylcellulose (CMC)) is reported as 101 % of control, the T/C (dose: 4.7 mg/kg/injection, schedule: Q01DX Z (ip), vehicle: carboxymethylcellulose (CMC)) is reported as 92 % of control and the T/C (dose: 9.4 mg/kg/injection, schedule: Q01DX Z (ip), vehicle: carboxymethylcellulose (CMC)) is reported as 105 % of control. For the same compound, the T/C [11] was 211 % of control and 262 % of control, the T/C (dose: 18.8 mg/kg/injection, schedule: Q01DX Z (ip), vehicle: carboxymethylcellulose (CMC)) was 161 % of control and the T/C (dose: 32.0 mg/kg/injection, schedule: Q01DX010 (ip), vehicle: saline) was 255 % of control and 375 % of control. The T/C (dose: 37.5 mg/kg/injection, schedule: Q01DX Z (ip), vehicle: carboxymethylcellulose (CMC)) was 230 % of control, the T/C (dose: 64.0 mg/kg/injection, schedule: Q01DX010 (ip), vehicle: saline) was 333 % of control and 375 % of control and the T/C (dose: 75.0 mg/kg/injection, schedule: Q01DX Z (ip), vehicle: carboxymethylcellulose (CMC)) was 112 % of control. For the same compound, the T/C (dose: 128.0 mg/kg/injection, schedule: Q01DX010 (ip), vehicle: saline) was 268 % of control and 333 % of control.
In the case of CSc1ncnc2c1ncn2C1OC(CO)C(O)C1O (stereo unspecified), the T/C (dose: 3.1 mg/kg/injection, schedule: Q01DX Z (ip), vehicle: carboxymethylcellulose (CMC)) is reported as 101 % of control, the T/C (dose: 6.3 mg/kg/injection, schedule: Q01DX Z (ip), vehicle: carboxymethylcellulose (CMC)) is reported as 124 % of control and the T/C [12] is reported as 118 % of control.
In the case of C[C@H](N)C(=O)N[C@@H]1[C@H]2C(=C(O)C[C@@H](O)[C@@H]2O)C(=O)O[C@@H]1C, the T/C (dose: 150.0 mg/kg/injection, schedule: Q01DX010 (ip), vehicle: saline) is reported as 112 % of control, the T/C (dose: 300.0 mg/kg/injection, schedule: Q01DX010 (ip), vehicle: saline) is reported as 156 % of control and the T/C (dose: 600.0 mg/kg/injection, schedule: Q01DX010 (ip), vehicle: saline) is reported as 212 % of control.
CN(Cc1cnc2nc(N)nc(N)c2n1)c1c(Cl)cc(C(=O)NC(CCC(=O)O)C(=O)O)cc1Cl (stereo unspecified) was tested, and the T/C [12] was 232 % of control, the T/C (dose: 25.0 mg/kg/injection, schedule: Q01DX Z (ip), vehicle: carboxymethylcellulose (CMC)) was 300 % of control and the T/C (dose: 50.0 mg/kg/injection, schedule: Q01DX Z (ip), vehicle: carboxymethylcellulose (CMC)) was 320 % of control. For the same compound, the T/C (dose: 100.0 mg/kg/injection, schedule: Q01DX Z (ip), vehicle: carboxymethylcellulose (CMC)) was 288 % of control.
With O=C(Nc1ccc(NC2=NCCN2)cc1)c1ccc(C(=O)Nc2ccc(NC3=NCCN3)cc2)cc1 the T/C [10] was 97 % of control, the T/C [1] was 109 % of control and the T/C (dose: 2.0 mg/kg/injection, schedule: Q01DX010 (ip), vehicle: saline) was 157 % of control and 184 % of control. For the same compound, the T/C [2] was 114 % of control, the T/C (dose: 4.0 mg/kg/injection, schedule: Q01DX010 (ip), vehicle: saline) was 189 % of control and 194 % of control and the T/C [13] was 152 % of control. The T/C (dose: 8.0 mg/kg/injection, schedule: Q01DX010 (ip), vehicle: saline) was 247 % of control and 284 % of control, the T/C (dose: 8.0 mg/kg/injection, schedule: Q01DX Z (ip), vehicle: saline) was 203 % of control and the T/C [11] was 115 % of control. For the same compound, the T/C [4] was 105 % of control.
With COc1cc(-c2ccc(Nc3ccccc3C(=O)O)c(OC)c2)ccc1Nc1ccccc1C(=O)O the T/C [3] was 116 % of control, the T/C (dose: 100.0 mg/kg/injection, schedule: Q01DX010 (ip), vehicle: saline) was 155 % of control and the T/C (dose: 200.0 mg/kg/injection, schedule: Q01DX010 (ip), vehicle: saline) was 161 % of control.
C[C@]12CC[C@H](OC3OC(CO)C(O)C(O)C3O)C[C@H]1CC[C@@H]1[C@@H]2CC[C@]2(C)[C@@H](C3=CCOC3=O)CC[C@]12O (stereo partly specified) was tested, and the T/C [8] was 97 % of control, the T/C [9] was 97 % of control and the T/C [10] was 101 % of control and 98 % of control. For the same compound, the T/C [1] was 104 % of control and 110 % of control, the T/C [2] was 105 % of control and 107 % of control and the T/C [13] was 121 % of control and 94 % of control.
